Molecules are shown by their SMILES.

As a reminder, the melting point is the temperature, or range, at which the solid turns liquid. Compound `Cc1ccnc(Nc2cc(NC(=O)c3ccc(CN4CCOCC4)cc3)ccc2C)c1` [Compound 9, N-(4-Methyl-3-((4-methylpyridin-2-yl)amino)phenyl)-4-(morhpolinomethyl)benzamide] registered a melting point of 155 to 157 °C.

Compound `Cc1ccc(NC(=O)c2ccc(CN3CCN(c4ncccn4)CC3)cc2)cc1Nc1cnccn1` [Compound 7, N-(4-Methyl-3-(pyrazin-2-ylamino)phenyl)-4-((4-(pyrimidin-2-yl)piperazin-1-yl)methyl)benzamide] gave a melting point of 143 °C.

On to `Cc1ccnc(Nc2cc(NC(=O)c3ccc(CN4CCOCC4)cc3)ccc2C)n1` [Compound 8, N-(4-Methyl-3-((4-methylpyrimidin-2-yl)amino)phenyl)-4-(morhpolinomethyl)benzamide], for which the melting point is 157 °C.

Turning to `Cc1ccnc(Nc2cc(NC(=O)c3ccc(CN4CCN(c5ncccn5)CC4)cc3)ccc2C)n1` [Compound 5, N-(4-Methyl-3-((4-methylpyrimidin-2-yl)amino)phenyl)-4-((4-(pyrimidin-2-yl)piperazin-1-yl)methyl)benzamide], the melting point was determined as 89 °C.

For `COc1ccc(CN2CCN(Cc3ccc(C(=O)Nc4ccc(C)c(Nc5cc(C)ccn5)c4)cc3)CC2)c(OC)c1OC` [Compound 10, N-(4-Methyl-3-((4-methylpyridin-2-yl)amino)phenyl)-4-((4-(2,3,4-trimethoxybenzyl)piperazin-1-yl)methyl)benzamide], the melting point stood at 87 °C.

These data come from PMC10734772 (Turkish Journal of Chemistry, 2021).
